Test results taken from US11072585B2 (PharmAkea, Inc., priority 2015, dated 2021).
Where a name gives a salt, the structure may show the parent alone.

These compounds were tested against human LOXL2 (Homo sapiens (Human), UniProt Q9Y4K0) (assay: Human LOXL2 amine oxidase activity assay (Amplex Red)). Details: concentrated conditioned media from CHO cells stably expressing human LOXL2; 2 h at 37° C. with compound; DAP substrate.
Format: biochemical
Description: Example B-1: Human LOXL2 Amine Oxidase Activity Assay
LOXL2 amine oxidase activity is evaluated by measuring Amplex Red fluorescence using 10-20× concentrated conditioned media from CHO cells stably expressing human LOXL2. To assay for amine oxidase activity, 10 μL of the concentrated conditioned media is incubated with 2 μL of test compound in DMSO and 73 μL Assay Buffer (50 mM Borate Buffer, pH8) for 2 h at 37° C. After the 2 h incubation, 5 ul of 10 mM 1,5-Diaminopentane (DAP) diluted in Assay Buffer and 10 μl of Amplex Red Mix (8.5 μl Assay Buffer+0.5 μl of 10 mM Amplex Red+1 μl of 500 U/ml Horseradish Peroxidase) are added and the plate mixed and immediately placed on the FlexStaion for fluorescence measurements. Fluorescence is read in kinetic mode every 2 min for 1 hour at excitation=544 and emission=590. The amine oxidase activity is calculated from the slope of the linear portion of the curve.

Chain of human LOXL2 (Q9Y4K0 26-774): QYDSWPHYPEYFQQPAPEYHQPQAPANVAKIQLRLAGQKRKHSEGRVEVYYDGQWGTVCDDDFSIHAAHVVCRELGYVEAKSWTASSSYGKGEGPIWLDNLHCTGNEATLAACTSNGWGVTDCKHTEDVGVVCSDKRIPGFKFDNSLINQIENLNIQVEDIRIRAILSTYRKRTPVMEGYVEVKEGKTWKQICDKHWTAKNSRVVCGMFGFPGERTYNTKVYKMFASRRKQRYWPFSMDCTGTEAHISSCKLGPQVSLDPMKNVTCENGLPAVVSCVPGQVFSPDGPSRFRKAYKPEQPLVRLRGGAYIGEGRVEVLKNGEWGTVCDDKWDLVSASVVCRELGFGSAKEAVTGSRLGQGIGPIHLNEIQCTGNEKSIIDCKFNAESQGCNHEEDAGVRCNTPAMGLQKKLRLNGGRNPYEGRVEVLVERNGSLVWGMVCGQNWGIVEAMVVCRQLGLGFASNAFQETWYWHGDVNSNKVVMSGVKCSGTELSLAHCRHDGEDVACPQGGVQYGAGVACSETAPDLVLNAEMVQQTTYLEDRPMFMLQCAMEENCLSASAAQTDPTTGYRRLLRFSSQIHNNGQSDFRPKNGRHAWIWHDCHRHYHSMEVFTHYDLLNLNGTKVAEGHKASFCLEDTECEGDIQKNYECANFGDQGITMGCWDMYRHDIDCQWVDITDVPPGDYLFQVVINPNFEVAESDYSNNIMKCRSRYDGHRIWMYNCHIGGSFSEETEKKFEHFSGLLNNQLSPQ

Row | Compound | IC50
1 | NCc1cc(Oc2cncc(C(=O)N3C[C@@H](O)[C@H](F)C3)c2)nc(C(F)(F)F)c1 (racemic) [Compound 1-55, Racemic-trans-(5-((4-(aminomethyl)-6-(trifluoromethyl)pyridin-2-yl)oxy)pyridin-3-yl)(-3-fluoro-4-hydroxypyrrolidin-1-yl)methanone hydrochloride] | < 300 nM
2 | CS(=O)(=O)CCNC(=O)c1cncc(Oc2cc(CN)cc(C(F)(F)F)n2)c1 [Compound 1-53, 5-((4-(Aminomethyl)-6-(trifluoromethyl)pyridin-2-yl)oxy)-N-(2-(methylsulfonyl)ethyl)nicotinamide hydrochloride] | < 300 nM
3 | NCc1cc(Oc2cccc3c2ccn3CC(=O)N2CCCCC2)nc(C(F)(F)F)c1 [Compound 1-56, 2-(4-((4-(Aminomethyl)-6-(trifluoromethyl)pyridin-2-yl)oxy)-1H-indol-1-yl)-1-(piperidin-1-yl)ethanone] | 300 to 1000 nM
4 | NCc1cc(Oc2cccc(C(=O)N3CC[C@@H](O)C3)c2)nc(C(F)(F)F)c1 [Compound 1-18, (R)-(3-((4-(Aminomethyl)-6-(trifluoromethyl)pyridin-2-yl)oxy)phenyl)(3-hydroxypyrrolidin-1-yl)methanone hydrochloride] | < 300 nM
5 | Cc1nnc(C(=O)N2CCC[C@H](Oc3cc(CN)cc(C(F)(F)F)n3)C2)o1 [Compound 1-51, (S)-(3-((4-(Aminomethyl)-6-(trifluoromethyl)pyridin-2-yl)oxy)piperidin-1-yl)(5-methyl-1,3,4-oxadiazol-2-yl)methanone trifluoroacetate] | 300 to 1000 nM
6 | NCc1cc(Oc2cccc(C(=O)NCCS(N)(=O)=O)c2)nc(C(F)(F)F)c1 [Compound 1-34, 3-((4-(Aminomethyl)-6-(trifluoromethyl)pyridin-2-yl)oxy)-N-(2-sulfamoylethyl)benzamide hydrochloride] | < 300 nM
7 | CC(C)C(=O)N1CCC[C@H](Oc2cc(CN)cc(C(F)(F)F)n2)C1 [Compound 1-52, (S)-1-(3-((4-(Aminomethyl)-6-(trifluoromethyl)pyridin-2-yl)oxy)piperidin-1-yl)-2-methylpropan-1-one trifluoroacetate] | < 300 nM
8 | CN(CCO)C(=O)c1cccc(Oc2cc(CN)cc(C(F)(F)F)n2)c1 [Compound 1-202, 3-((4-(Aminomethyl)-6-(trifluoromethyl)pyridin-2-yl)oxy)-N-(2-hydroxyethyl)-N-methylbenzamide hydrochloride] | < 300 nM
9 | NCc1cc(Oc2cccc(C(=O)N3CCC[C@@H]3C(=O)O)c2)nc(C(F)(F)F)c1 [Compound 1-25, (R)-1-(3-((4-(Aminomethyl)-6-(trifluoromethyl)pyridin-2-yl)oxy)benzoyl)pyrrolidine-2-carboxylic acid hydrochloride] | 300 to 1000 nM
10 | Cc1cc(=O)n(Cc2cc(CN)cc(C(F)(F)F)n2)c(=O)n1CCO [Compound 1-135, 3-((4-(Aminomethyl)-6-(trifluoromethyl)pyridin-2-yl)methyl)-1-(2-hydroxyethyl)-6-methylpyrimidine-2,4(1H,3H)-dione hydrochloride] | > 1000 nM
11 | NCc1cc(Oc2cccc(Oc3ccccc3)c2)nc(C(F)(F)F)c1 [Compound 1-3, (2-(3-Phenoxyphenoxy)-6-(trifluoromethyl)pyridin-4-yl)methanamine trifluoroacetate] | < 300 nM
12 | NCc1cc(Oc2cccc(Nc3ccccc3)c2)nc(C(F)(F)F)c1 [Compound 1-5, 3-((4-(Aminomethyl)-6-(trifluoromethyl)pyridin-2-yl)oxy)-N-phenylaniline] | < 300 nM
13 | NCc1cc(O[C@H]2CCCN(C(=O)Cc3ccccc3)C2)nc(C(F)(F)F)c1 [Compound 1-46, (S)-1-(3-((4-(Aminomethyl)-6-(trifluoromethyl)pyridin-2-yl)oxy)piperidin-1-yl)-2-phenylethanone trifluoroacetate] | < 300 nM
14 | NCc1cc(Oc2cccc3[nH]ccc23)nc(C(F)(F)F)c1 [Compound 1-58, (2-((1H-Indol-4-yl)oxy)-6-(trifluoromethyl)pyridin-4-yl)methanamine] | < 300 nM
15 | NCc1cc(Oc2cccc(C(=O)N3CCC4(CC3)CNC(=O)O4)c2)nc(C(F)(F)F)c1 [Compound 1-27, 8-(3-((4-(Aminomethyl)-6-(trifluoromethyl)pyridin-2-yl)oxy)benzoyl)-1-oxa-3,8-diazaspiro[4.5]decan-2-one hydrochloride] | < 300 nM
16 | NCc1cc(Oc2cccc(C(=O)N3CC[C@H](O)C3)c2)nc(C(F)(F)F)c1 [Compound 1-17, (S)-(3-((4-(Aminomethyl)-6-(trifluoromethyl)pyridin-2-yl)oxy)phenyl)(3-hydroxypyrrolidin-1-yl)methanone hydrochloride] | < 300 nM

More lines, now with the values ahead:

Row | IC50 | Compound
17 | > 1000 nM | NCc1cc(Oc2cccc3c2CCC(=O)N3CC(=O)O)nc(C(F)(F)F)c1 [Compound 1-236, 2-(5-((4-(Aminomethyl)-6-(trifluoromethyl)pyridin-2-yl)oxy)-2-oxo-3,4-dihydroquinolin-1(2H)-yl)acetic acid hydrochloride]
18 | < 300 nM | CCc1cccc(NC(=O)c2cccc(Oc3cc(CN)cc(C(F)(F)F)n3)c2)c1 [Compound 1-245, 3-((4-(Aminomethyl)-6-(trifluoromethyl)pyridin-2-yl)oxy)-N-(3-ethylphenyl)benzamide hydrochloride]
19 | < 300 nM | NCc1cc(Oc2cccc(C(=O)N3CC[C@@H](F)C3)c2)nc(C(F)(F)F)c1 [Compound 1-212, (R)-(3-((4-(Aminomethyl)-6-(trifluoromethyl)pyridin-2-yl)oxy)phenyl)(3-fluoropyrrolidin-1-yl)methanone hydrochloride]
20 | < 300 nM | NCc1cc(Oc2ccnc(C(=O)Nc3ccccc3)c2)nc(C(F)(F)F)c1 [Compound 1-252, 4-((4-(Aminomethyl)-6-(trifluoromethyl)pyridin-2-yl)oxy)-N-phenylpicolinamide hydrochloride]
21 | 300 to 1000 nM | NCc1cc(Oc2cccc(C(=O)O)c2)nc(C(F)(F)F)c1 [Compound 1-224, 3-((4-(Aminomethyl)-6-(trifluoromethyl)pyridin-2-yl)oxy)benzoic acid hydrochloride]
22 | < 300 nM | C#CCNC(=O)c1cccc(Oc2cc(CN)cc(C(F)(F)F)n2)c1 [Compound 1-248, 3-((4-(Aminomethyl)-6-(trifluoromethyl)pyridin-2-yl)oxy)-N-(prop-2-yn-1-yl)benzamide hydrochloride]
23 | < 300 nM | COCC1CN(C(=O)c2cccc(Oc3cc(CN)cc(C(F)(F)F)n3)c2)C1 [Compound 1-206, (3-((4-(Aminomethyl)-6-(trifluoromethyl)pyridin-2-yl)oxy)phenyl)(3-(methoxymethyl)azetidin-1-yl)methanone hydrochloride]
24 | 300 to 1000 nM | Cc1cc(=O)n(Cc2cc(CN)cc(C(F)(F)F)n2)c(=O)n1Cc1ccncn1 [Compound 1-243, 3-((4-(Aminomethyl)-6-(trifluoromethyl)pyridin-2-yl)methyl)-6-methyl-1-(pyrimidin-4-ylmethyl)pyrimidine-2,4(1H,3H)-dione hydrochloride]
25 | < 300 nM | C#C[C@@H](CC(=O)OC)NC(=O)c1cccc(Oc2cc(CN)cc(C(F)(F)F)n2)c1 [Compound 1-222, Methyl (R)-3-(3-((4-(aminomethyl)-6-(trifluoromethyl)pyridin-2-yl)oxy)benzamido)pent-4-ynoate hydrochloride]
